The values below come from patent US8283465B2, “Triazolopyridine compound, and action thereof as prolyl hydroxylase inhibitor or erythropoietin production-inducing agent” (Japan Tobacco Inc., priority 2009, dated 2012).

For orientation: IC50 means the concentration needed to halve the response being measured. Broadly, the EC50 is the concentration needed to bring the measured effect to its halfway point.

One assay has as its target T1, human PHD2 (Homo sapiens, UniProt Q9GZT9).
T1 construct: made in house; host or cells: Sf9 insect cells (baculovirus, pVL1393 vector)
In words: Measurement of human PHD inhibitory activity (TR-FRET, hydroxylation of HIF-1α partial peptide). It is filed as biochemical. The conditions noted are these: for IC50: human PHD2 enzyme 1 nM, 25° C. 30 min, values consisting solely of numbers, read-out: IC50 (μM) in vitro, human PHD inhibitory activity. The method, boiled down:
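FLAG-tagged human PHD2 from Sf9 cells (1 nM final) hydroxylates a biotinylated 19-residue HIF-1α peptide, 30 min at 25° C. After EDTA stop, hydroxyproline detected by TR-FRET using Eu/Xlent-labelled VBC complex; % inhibition relative to no-enzyme and no-compound wells.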
A general note: Time-resolved FRET reads energy transfer from a long-lived donor to a nearby acceptor.

Assay [1] deals with human EPO production, Hep3B cells. Description: Human EPO production activity in Hep3B cells (EPO-ELISA of culture supernatant). Format: cell-based. The conditions noted are these: for production activity (%) at 30 μM in vitro, human EPO: 24 hr, values containing %, relative to maximum production; for EC50: Homo sapiens, 24 hr incubation, values consisting solely of numbers, read-out: EC50 (μM) in vitro, human EPO production activity. The method, boiled down:
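Hep3B cells were dosed with compound 24 h after plating and incubated 24 h at 37° C. Secreted EPO in supernatant was measured by ELISA. Values are EC50, or activity (%) at 30 μM scaled between untreated and maximum production.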
A general note: ELISA stands for enzyme-linked immunosorbent assay.

Where a name gives a salt, the structure may show the parent alone.

T1 sequence (Q9GZT9 whole entry): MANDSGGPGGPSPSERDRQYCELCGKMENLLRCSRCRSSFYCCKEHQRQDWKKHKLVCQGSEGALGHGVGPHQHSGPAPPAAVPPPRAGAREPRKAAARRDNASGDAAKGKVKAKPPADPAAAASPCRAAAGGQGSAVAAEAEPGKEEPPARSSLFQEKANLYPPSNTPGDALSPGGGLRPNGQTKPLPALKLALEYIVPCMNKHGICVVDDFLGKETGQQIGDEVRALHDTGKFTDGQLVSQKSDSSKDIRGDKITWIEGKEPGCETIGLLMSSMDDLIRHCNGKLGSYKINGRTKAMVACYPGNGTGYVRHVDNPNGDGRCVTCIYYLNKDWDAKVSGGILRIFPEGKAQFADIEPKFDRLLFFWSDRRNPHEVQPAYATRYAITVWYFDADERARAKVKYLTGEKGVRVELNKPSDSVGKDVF

In the case of `C[C@@H](NC(=O)c1c(O)cc(-c2cc(F)cc(F)c2)n2ncnc12)C(=O)O` [Example 64, (R)-2-{[5-(3,5-difluorophenyl)-7-hydroxy[1,2,4]triazolo[1,5-a]pyridine-8-carbonyl]amino} propionic acid hydrochloride], the IC50 at human PHD2 was 6.88 µM. Further, in assay [1], the “production activity (%) at 30 μM in vitro, human EPO” value (shortened to “production activity (%) at 30 μM”) is recorded as 0%.

On to `CC(NC(=O)c1c(O)cc(-c2cc(F)cc(F)c2)n2ncnc12)C(=O)O` (centres unmarked) [Example 66, 2-{[5-(3,5-difluorophenyl)-7-hydroxy-[1,2,4]triazolo [1,5-a]pyridine-8-carbonyl]amino} propionic acid hydrochloride], for which, at human PHD2, the IC50 was found to be 1.5 µM. The EC50 in assay [1] is 21.1 µM.

With `C[C@H](NC(=O)c1c(O)cc(-c2cc(F)cc(F)c2)n2ncnc12)C(=O)O` [Example 67, (S)-2-{[5-(3,5-difluorophenyl)-7-hydroxy[1,2,4]triazolo[1,5-a]pyridine-8-carbonyl]amino} propionic acid hydrochloride], the IC50 on human PHD2 was 0.9 µM. Besides, in assay [1], the EC50 was 14.3 µM.

For `CC(C)(NC(=O)c1c(O)cc(-c2cc(F)cc(F)c2)n2ncnc12)C(=O)O` [Example 68, 2-{[5-(3,5-difluorophenyl)-7-hydroxy[1,2,4]triazolo[1,5-a]pyridine-8-carbonyl]amino}-2-methylpropionic acid hydrochloride], the IC50 at human PHD2 is 5.94 µM. Moreover, the “production activity (%) at 30 μM” value in assay [1] turned out to be 0%.

With `C[C@H](NC(=O)c1c(O)cc(CCc2ccccc2)n2ncnc12)C(=O)O` [Example 69, (S)-2-[(7-hydroxy-5-phenethyl[1,2,4]triazolo[1,5-a]pyridine-8-carbonyl)amino] propionic acid hydrochloride], the half-inhibitory concentration (IC50) on human PHD2 was 1.62 µM. For the same molecule, in assay [1], the EC50 turned out to be 12 µM.

As to `C[C@@H](NC(=O)c1c(O)cc(CCc2ccccc2)n2ncnc12)C(=O)O` [Example 70, (R)-2-[(7-hydroxy-5-phenethyl[1,2,4]triazolo[1,5-a]pyridine-8-carbonyl)amino] propionic acid hydrochloride], the inhibition at 30 µM at human PHD2 (at 30 μM, values containing %, read-out: inhibitory activity (%) at 30 μM in vitro, human PHD) was 38%. Besides, the “production activity (%) at 30 μM” value in assay [1] was 1%.

As for `Cc1ccc(-c2cc(O)c(C(=O)NCC(=O)O)c3ncnn23)s1` [Example 72, {[7-hydroxy-5-(5-methylthiophen-2-yl) [1,2,4]triazolo[1,5-a]pyridine-8-carbonyl]amino} acetic acid hydrochloride], the IC50 at human PHD2 stood at 0.4 µM. For the same molecule, the EC50 in assay [1] was 4 µM.

In the case of `CCCCCCc1cc(O)c(C(=O)NCC(=O)O)c2ncnn12.Cl` [Example 73, [(5-hexyl-7-hydroxy[1,2,4]triazolo[1,5-a]pyridine-8-carbonyl)amino] acetic acid hydrochloride], the IC50 on human PHD2 was determined as 7.09 µM. In assay [1], the “production activity (%) at 30 μM” value is 34%.

As for `O=C(O)CNC(=O)c1c(O)cc(-c2cc(F)ccc2F)n2ncnc12` [Example 75, {[5-(2,5-difluorophenyl)-7-hydroxy[1,2,4]triazolo[1,5-a]pyridine-8-carbonyl]amino} acetic acid hydrochloride], the concentration for half-maximal inhibition (IC50) at human PHD2 turned out to be 0.21 µM. Moreover, the EC50 in assay [1] came out at 23.7 µM.

Turning to `O=C(O)CNC(=O)c1c(O)cc(-c2cc(F)cc(F)c2F)n2ncnc12` [Example 76, {[7-hydroxy-5-(2,3,5-trifluorophenyl) [1,2,4]triazolo[1,5-a]pyridine-8-carbonyl]amino} acetic acid hydrochloride], at human PHD2, the IC50 stood at 0.22 µM. In assay [1], the EC50 turned out to be 18 µM.

As to `O=C(O)CNC(=O)c1c(O)cc(-c2ccc(F)cc2F)n2ncnc12` [Example 77, {[5-(2,4-difluorophenyl)-7-hydroxy[1,2,4]triazolo[1,5-a]pyridine-8-carbonyl]amino} acetic acid hydrochloride], the IC50 on human PHD2 worked out at 0.24 µM. Also, the EC50 in assay [1] came out at 18.7 µM.

With `O=C(O)CNC(=O)c1c(O)cc(-c2ccc(Cl)c(F)c2)n2ncnc12` [Example 78, {[5-(4-chloro-3-fluorophenyl)-7-hydroxy[1,2,4]triazolo[1,5-a]pyridine-8-carbonyl]amino} acetic acid hydrochloride], the IC50 at human PHD2 was 0.15 µM. Also, the EC50 in assay [1] worked out at 6.6 µM.

For the molecule `Cc1cc(F)cc(-c2cc(O)c(C(=O)NCC(=O)O)c3ncnn23)c1` [Example 79, {[5-(3-fluoro-5-methylphenyl)-7-hydroxy[1,2,4]triazolo[1,5-a]pyridine-8-carbonyl]amino} acetic acid hydrochloride], the IC50 at human PHD2 is 0.23 µM. For the same molecule, the EC50 in assay [1] was found to be 7.8 µM.

Regarding `O=C(O)CNC(=O)c1c(O)c(Cl)c(CCc2ccccc2)n2ncnc12` [Example 80, [(6-chloro-7-hydroxy-5-phenethyl[1,2,4]triazolo[1,5-a]pyridine-8-carbonyl)amino] acetic acid hydrochloride], on human PHD2, the IC50 stood at 0.71 µM. In addition, the 50% effective concentration (EC50) in assay [1] was determined as 23.3 µM.

Regarding `CCCc1c(Cl)c(O)c(C(=O)NCC(=O)O)c2ncnn12.Cl` [Example 81, [(6-chloro-7-hydroxy-5-propyl[1,2,4]triazolo[1,5-a]pyridine-8-carbonyl)amino] acetic acid hydrochloride], the IC50 on human PHD2 is 6.09 µM. The “production activity (%) at 30 μM” value in assay [1] was 33%.

`O=C(O)CNC(=O)c1c(O)cc(-c2ccc(C3CC3)cc2F)n2ncnc12` [Example 82, {[5-(4-cyclopropyl-2-fluorophenyl)-7-hydroxy[1,2,4]triazolo[1,5-a]pyridine-8-carbonyl]amino} acetic acid hydrochloride]: the IC50 at human PHD2 worked out at 0.15 µM. For the same molecule, in assay [1], the EC50 was found to be 5.4 µM.

Regarding `O=C(O)CNC(=O)c1c(O)cc(-c2cc(F)cc(F)c2)c2ncnn12` [Example 85, {[8-(3,5-difluorophenyl)-6-hydroxy[1,2,4]triazolo[1,5-a]pyridine-5-carbonyl]amino} acetic acid hydrochloride], the IC50 at human PHD2 was found to be 0.16 µM. Also, the half-maximal effective concentration (EC50) in assay [1] was determined as 20.6 µM.

`Cl.O=C(O)CNC(=O)c1c(O)cc(Cc2ccccc2)c2ncnn12` [Example 86, [(8-benzyl-6-hydroxy[1,2,4]triazolo[1,5-a]pyridine-5-carbonyl)amino] acetic acid hydrochloride]: the IC50 on human PHD2 worked out at 0.83 µM. In addition, the “production activity (%) at 30 μM” value in assay [1] was 6%.

With `O=C(O)CNC(=O)c1c(O)cc(-c2ccccc2Cl)c2ncnn12` [Example 88, {[8-(2-chlorophenyl)-6-hydroxy[1,2,4]triazolo[1,5-a]pyridine-5-carbonyl]amino} acetic acid], the IC50 at human PHD2 was 0.16 µM. Moreover, in assay [1], the “production activity (%) at 30 μM” value came to 14%.

For `O=C(O)CNC(=O)c1c(O)cc(-c2cc(Cl)cc(Cl)c2)c2ncnn12` [Example 89, {[8-(3,5-dichlorophenyl)-6-hydroxy[1,2,4]triazolo[1,5-a]pyridine-5-carbonyl]amino} acetic acid hydrochloride], the IC50 on human PHD2 was determined as 0.12 µM. The EC50 in assay [1] stood at 4.2 µM.

Regarding `O=C(O)CNC(=O)c1c(O)cc(CCc2ccc(F)cc2)c2ncnn12` [Example 90, ({8-[2-(4-fluorophenyl)-ethyl]-6-hydroxy[1,2,4]triazolo[1,5-a]pyridine-5-carbonyl}amino) acetic acid hydrochloride], the IC50 at human PHD2 was determined as 0.29 µM. In assay [1], the EC50 amounted to 16.6 µM.

For `Cl.O=C(O)CNC(=O)c1c(O)cc(CC2CCCCC2)c2ncnn12` [Example 91, [(8-cyclohexylmethyl-6-hydroxy[1,2,4]triazolo[1,5-a]pyridine-5-carbonyl)amino] acetic acid hydrochloride], the IC50 at human PHD2 came to 1.53 µM. In addition, the “production activity (%) at 30 μM” value in assay [1] amounted to 43%.

Take `O=C(O)CNC(=O)c1c(O)cc(C2=CCCCC2)c2ncnn12` [Example 93, [(8-cyclohex-1-enyl-6-hydroxy[1,2,4]triazolo[1,5-a]pyridine-5-carbonyl)amino] acetic acid hydrochloride]: at human PHD2, the 50% inhibitory concentration (IC50) came out at 0.51 µM. In addition, the EC50 in assay [1] is 16 µM.

Turning to `O=C(O)CNC(=O)c1c(O)cc(-c2ccc(F)c(Cl)c2)c2ncnn12` [Example 94, {[8-(3-chloro-4-fluorophenyl)-6-hydroxy[1,2,4]triazolo[1,5-a]pyridine-5-carbonyl]amino} acetic acid hydrochloride], on human PHD2, the IC50 is 0.11 µM. The EC50 in assay [1] worked out at 9.7 µM.

On to `O=C(O)CNC(=O)c1c(O)cc(-c2ccc(Cl)c(Cl)c2)c2ncnn12` [Example 95, {[8-(3,4-dichlorophenyl)-6-hydroxy[1,2,4]triazolo[1,5-a]pyridine-5-carbonyl]amino} acetic acid hydrochloride], for which, on human PHD2, the IC50 is 0.12 µM. Besides, in assay [1], the EC50 turned out to be 4.3 µM.

As for `O=C(O)CNC(=O)c1c(O)cc(-c2ccc(Cl)s2)c2ncnn12` [Example 96, {[8-(5-chlorothiophen-2-yl)-6-hydroxy[1,2,4]triazolo[1,5-a]pyridine-5-carbonyl]amino} acetic acid hydrochloride], the IC50 on human PHD2 came out at 0.29 µM. The EC50 in assay [1] came to 5.9 µM.

In the case of `O=C(O)CNC(=O)c1c(O)cc(-c2cc(C(F)(F)F)cc(C(F)(F)F)c2)c2ncnn12` [Example 97, {[8-(3,5-bis-trifluoromethyl-phenyl)-6-hydroxy[1,2,4]triazolo[1,5-a]pyridine-5-carbonyl]amino} acetic acid hydrochloride], the IC50 on human PHD2 came to 0.13 µM. In addition, in assay [1], the EC50 stood at 3.5 µM.

In the case of `O=C(O)CNC(=O)c1c(O)cc(CCC2CCCCC2)c2ncnn12` [Example 98, {[8-(2-cyclohexylethyl)-6-hydroxy[1,2,4]triazolo[1,5-a]pyridine-5-carbonyl]amino} acetic acid hydrochloride], on human PHD2, the IC50 came to 1.13 µM. For the same molecule, the half-maximal effective concentration (EC50) in assay [1] is 25.6 µM.
